The text below walks through data of article PMC10985088, “Synthesis and biological evaluation of echinomycin analogues as potential colon cancer agent” (Scientific Reports, 2024).

For assay [1], the system named is HIF-1α-mediated transcription. The experiment in a line: HRE reporter gene assay in SW620 cells overexpressing HIF-1α. Format: cell-based, human. Conditions: SW620 transiently overexpressing HIF-1α, 16 h. The source says: Echinomycin is known to inhibit the HIF-1 pathway by inhibiting the binding of HIF-1α to HRE[15],[21],[22]. The ability of 3 to inhibit HIF-1α-mediated transcription was investigated by using an HRE reporter gene assay in SW620 cells transiently overexpressing HIF-1α.
Figure 5 Effect of echinomycin (1), 2 and 3 on HIF-1α-dependent transcription in SW620 cells. SW620 cells were transiently transfected with empty vector pCI-neo-3 × FLAG or HIF-1α expression vector pCI-neo-3 × FLAG-HIF-1α, together with pGL3-5 × HRE-Luc and pGL4.75 [hRluc/CMV]. One day after transfection, echinomycin (1), 2, or 3 was added to the cell culture media and incubated for an additional 16 h. The cells were lysed, and a dual luciferase assay was performed. Firefly luciferase activity was normalized to Renilla luciferase activity, and the data are presented as fold induction relative to the values obtained in cells DMSO-treated cells transfected with empty vector. The error bars represent standard deviations (n = 3). *P < 0.05 and **P < 0.01 compared to DMSO-treated cells transfected with HIF-1α (Student’s test).
Basically, the assay was performed using methods previously reported by our group. […]
On the technique in general: In a reporter assay the amount or activity of a reporter protein is the signal.

Assay [2] has as its system SW620 cells. Put plainly: WST-8 cytotoxicity assay, SW620. Conditions: read-out: IC50 SW620; human colon cancer cell, 72 h, mean ± SE (n = 3). As for the experimental part:
(§1) With a range of chromophore analogues in hand, their toxicity to SW620 cells was investigated by WST assays.
(§2) Basically, the evaluation was performed using methods previously reported by our group[20],[23]. Cytotoxic activities of compounds against MIA PaCa-2 (American Type Culture Collection), SW620 (European Collection of Authenticated Cell Cultures) were measured by WST-8 assay according to manufacturer’s protocol. Briefly, cells (1 × 10^4 cells/well) in a 96-well plate were cultured in medium (for MIA PaCa-2, D-MEM (Wako, Japan) containing 10% fetal bovine serum (Funakoshi, Japan), 100 units/mL penicillin G and 100 µg/mL streptomycin (Wako, Japan), for SW620, RPMI-1640 (Wako, Japan) containing 10% fetal bovine serum, 100 units/mL penicillin G and 100 µg/mL streptomycin) were cultured at 37 °C for 24 h under 5% CO2 atmosphere. Then, cells were treated with test compounds (final DMSO concentration was 1%) at 37 °C for 72 h under 5% CO2 atmosphere. Then, cells were treated with a solution of Cell Counting Kit-8® (Dojindo, Japan) for 3 h. After that, cell viabilities were determined based on the measurement of absorption at 450 nm of the wells by using TECAN Infinite® M200 microplate reader. The results were expressed as a percentage of the negative control (cells treated with DMSO only), and that value was fixed at 100%.

Assay [3] has as its system MIA PaCa-2 cells. Conditions: read-out: IC50 MIA PaCa-2; human pancreatic carcinoma cell, 72 h, mean ± SE (n = 3). As for the experimental part:
as §1, §2

Consider `CS[C@H]1SC[C@H]2C(=O)N(C)[C@@H](C(C)C)C(=O)OC[C@@H](NC(=O)c3cnc4ccccc4n3)C(=O)N[C@@H](C)C(=O)N(C)[C@@H]1C(=O)N(C)[C@@H](C(C)C)C(=O)OC[C@@H](NC(=O)c1cnc3ccccc3n1)C(=O)N[C@@H](C)C(=O)N2C` [Compound 1, Echinomycin], for which the “HIF-1α-induced HRE reporter activity” value in assay [1] is listed as “inhibited”. Also, the IC50 (as a rule, the concentration at which inhibition is half-maximal) came out at 2.5 ± 0.8 nM in assay [2] and 0.75 ± 0.02 nM in assay [3].
